Measurements from patent US10329309B2, “3-(3H-imidazo[4,5-B]pyridin-2-yl)-1H-pyrazolo[4,3-B]pyridines and therapeutic uses thereof” (Samumed, LLC, priority 2015, dated 2019).

Legend:
IL-6 (THP-1 cells) = assay: Inhibition of IL-6 in LPS-stimulated THP-1 monocytes (HTRF); format: cell-based; conditions: Homo sapiens; for EC50: LPS 500 ng/mL, IL-6 by HTRF; for inhibition at 10 µM: LPS stimulated, IL-6, at 10 μM, read-out: percent inhibition at 10 μM (given for EC50 of >10 μM)
In short: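 THP-1 cells, serum-starved in 1% FBS for 24 h, were pre-incubated 2 h with compound (10-point, 1:3 from 10 μM, 0.1% DMSO), then stimulated with 500 ng/mL LPS for 22 h at 37 °C. IL-6 was quantified by HTRF 665/620 ratio. EC50 was fitted from DMSO-normalized data; above 10 μM, % inhibition at 10 μM is given.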

[1] = tested on: Wnt activity (Sp5-Luc reporter, SW480 colon carcinoma cells); assay: Screening assay for Wnt activity: Sp5-Luc reporter gene assay in SW480 cells; format: cell-based; conditions: Homo sapiens; for inhibition at 10 µM: 10 μM compound, read-out: percent inhibition at 10 μM (given for EC50 of >10 μM); for EC50: overnight incubation, 10-point dose-response from 10 μM
In short: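 SW480 cells stably carrying Sp5-Luc reporter (eight TCF/LEF sites) plated at 4,000/well in 1% FBS medium with compound (10-point 1:3 series from 10 μM, 0.1% DMSO) overnight at 37 °C. BrightGlo luminescence normalized to DMSO; EC50 by four-parameter fit, else % inhibition at 10 μM.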

Row | Compound | EC50 (IL-6 (THP-1 cells)) [µM] | EC50 [1] [µM] | inhibition at 10 µM (IL-6 (THP-1 cells)) [%] | inhibition at 10 µM [1] [%]
1 | COc1cccc(-c2ccnc3[nH]c(-c4n[nH]c5ccc(-c6cncc(O)c6)nc45)nc23)c1 [Compound 1030, 5-(3-(7-(3-Methoxyphenyl)-3H-imidazo[4,5-b]pyridin-2-yl)-1H-pyrazolo [4,3-b]pyridin-5-yl)pyridin-3-ol] | > 10 | > 10 | 40.9 | 33.5
2 | c1cc(-c2ccc3c(c2)OCO3)c2nc(-c3n[nH]c4ccc(C5CCNCC5)nc34)[nH]c2n1 [Compound 1108, 3-(7-(Benzo[d][1,3]dioxol-5-yl)-3H-imidazo[4,5-b]pyridin-2-yl)-5-(piperidin-4-yl)-1H-pyrazolo[4,3-b]pyridine] | > 10 | > 10 | 30.1 | 9.3
3 | C1=C(c2ccc3[nH]nc(-c4nc5c(-c6ccc7c(c6)OCO7)ccnc5[nH]4)c3n2)CCNC1 [Compound 1109, 3-(7-(Benzo[d][1,3]dioxol-5-yl)-3H-imidazo[4,5-b]pyridin-2-yl)-5-(1,2,3,6-tetrahydropyridin-4-yl)-1H-pyrazolo[4,3-b]pyridine] | > 10 | > 10 | 20.5 | 14.5
4 | Cn1cc(-c2ccc3[nH]nc(-c4nc5c(-c6ccc(F)cc6)ccnc5[nH]4)c3n2)c(CO)n1 [Compound 1129, (4-(3-(7-(4-Fluorophenyl)-3H-imidazo[4,5-b]pyridin-2-yl)-1H-pyrazolo[4,3-b]pyridin-5-yl)-1-methyl-1H-pyrazol-3-yl)methanol] | > 10 | > 10 | 24.8 | 14.8
5 | Cn1cc(-c2ccc3[nH]nc(-c4nc5c(N6CCCCC6)ccnc5[nH]4)c3n2)c(CO)n1 [Compound 1134, (1-Methyl-4-(3-(7-(piperidin-1-yl)-3H-imidazo[4,5-b]pyridin-2-yl)-1H-pyrazolo[4,3-b]pyridin-5-yl)-1H-pyrazol-3-yl)methanol] | > 10 | > 10 | 12.6 | 4

Continued, in another order:

Row | EC50 (IL-6 (THP-1 cells)) [µM] | EC50 [1] [µM] | Compound | inhibition at 10 µM (IL-6 (THP-1 cells)) [%] | inhibition at 10 µM [1] [%]
6 | > 10 | > 10 | COc1cccc(-c2ccnc3[nH]c(-c4n[nH]c5ccc(-c6cncc(OC7CCNCC7)c6)nc45)nc23)c1 [Compound 1025, 3-(7-(3-Methoxyphenyl)-3H-imidazo[4,5-b]pyridin-2-yl)-5-(5-(piperidin-4-yloxy)pyridin-3-yl)-1H-pyrazolo[4,3-b]pyridine] | 26.5 | 39.2
7 | > 10 | > 10 | Cn1cc(-c2ccc3[nH]nc(-c4nc5c(-c6ccc7c(c6)OCO7)ccnc5[nH]4)c3n2)c(CO)n1 [Compound 1152, (4-(3-(7-(Benzo[d][1,3]dioxol-5-yl)-3H-imidazo[4,5-b]pyridin-2-yl)-1H-pyrazolo[4,3-b]pyridin-5-yl)-1-methyl-1H-pyrazol-3-yl)methanol] | 28.4 | 15.4
